{"source": "patent EP1311531B1", "about": "“STEROID DERIVED ANTIBIOTICS” (Brigham Young University, priority 2000, dated 2002)", "key": {"Gram-negative bacteria": {"test_system": "Gram-negative bacteria", "test": "MIC and permeabilization measurements, strain not stated (Table 14, Fig. 5)"}, "[1]": {"test": "Stability (half-lives) in phosphate buffer, decomposition observed via HPLC", "assay_type": "physicochemical", "conditions": "50 mM phosphate buffer, room temperature", "procedure": "Compounds 352 - 354 were dissolved in 50 mM phosphate buffered water (pH 2.0, 7.0 or 12.0) at approximately 10 mM concentrations. […] These compounds were used since they contain a chromophore that facilitated monitoring of decomposition by absorption methods common in the HPLC apparatus used."}}}
{"smiles": "C[C@H](CCCN)[C@H]1CC[C@H]2[C@@H]3[C@H](OCCCN)C[C@@H]4C[C@H](OCCCN)CC[C@]4(C)[C@H]3C[C@H](OCCCN)[C@]12C", "note": "[Compound 135]", "values": [{"measurement": "MBC", "setting": "Gram-negative bacteria; in words, text on Fig. 5", "result": "relatively high"}, {"measurement": "MIC", "setting": "Gram-negative bacteria; in words, text on Fig. 5", "result": "relatively high"}]}
{"smiles": "C[C@H](CCCO)[C@H]1CC[C@H]2[C@@H]3[C@H](NC(=O)CCCCCN)C[C@@H]4C[C@H](NC(=O)CCCCCN)CC[C@]4(C)[C@H]3C[C@H](NC(=O)CCCCCN)[C@]12C", "note": "[Compound 211]", "values": [{"measurement": "activity as a permeabilizer", "setting": "Gram-negative bacteria; in words", "result": "less active than 209c as a permeabilizer"}]}
{"smiles": "C[C@H](CCCO)[C@H]1CC[C@H]2[C@@H]3[C@H](N)C[C@@H]4C[C@H](N)CC[C@]4(C)[C@H]3C[C@H](N)[C@]12C", "note": "[Compound 206]", "values": [{"measurement": "activity as a permeabilizer", "setting": "Gram-negative bacteria; in words", "result": "ineffective as a permeabilizer"}]}
{"smiles": "C[C@H](CCCN(C)Cc1ccccc1)[C@H]1CC[C@H]2[C@@H]3[C@H](OC(=O)CCCN)C[C@@H]4C[C@H](OC(=O)CCCN)CC[C@]4(C)[C@H]3C[C@H](OC(=O)CCCN)[C@]12C", "note": "[Compound 354]", "values": [{"measurement": "stabilities (half-lives) pH 2.0", "setting": "[1]; pH 2.0, approximately 10 mM", "result": 33, "unit": "days"}, {"measurement": "stabilities (half-lives) pH 7.0", "setting": "[1]; pH 7.0, approximately 10 mM", "result": 12, "unit": "days"}, {"measurement": "stabilities (half-lives) pH 12.0", "setting": "[1]; pH 12.0, approximately 10 mM", "result": "<30", "unit": "minutes"}]}
{"smiles": "CC(CCCO)C1CCC2C3C(NC(=O)C(N)CCCCN)CC4CC(NC(=O)C(N)CCCCN)CCC4(C)C3CC(NC(=O)C(N)CCCCN)C12C", "note": "(stereo not shown) [Compound 209c]", "values": [{"measurement": "MIC", "setting": "Gram-negative bacteria; Table 14", "result": 85, "unit": "µg/mL"}, {"measurement": "a: concentration of cholic acid derivatives required to lower MIC of erythromycin to 1 µg/ML", "setting": "Gram-negative bacteria; Table 14", "result": 45, "unit": "µg/mL"}, {"measurement": "b: concentration of cholic acid derivatives required to lower MIC of novobiocin to 1 µg/ML", "setting": "Gram-negative bacteria; Table 14", "result": 60, "unit": "µg/mL"}]}
